# Read-outs that look alike come from different tables or passages of the source.
# How the values were obtained:
# [1] = tested on: H. pylori; design: method as in PMID 31383920, PMID 34354964; conditions: ref [40],[70]; cited from earlier work
# [2] = tested on: H. pylori ATCC 700392 (26695); assay: MIC/MBC, broth microdilution; assay type: cell-based, Helicobacter pylori; conditions: H. pylori ATCC 700392 (26695)
# Method: (§1) The antimicrobial activity of the HsrA inhibitors was evaluated by the determination of the minimal inhibitory concentration (MIC) against four different strains of H. pylori: ATCC 700392 (aka 26695), ATCC 43504 (MTZ-resistant reference strain), ATCC 700684 (CLR-resistant reference strain), and Donostia 2 (LVX-resistant clinical isolate). The MICs were determined by the broth microdilution method, as previously described. Briefly, H. pylori strains were grown in blood agar at 37 °C for 72 h under microaerobic conditions. Fresh inoculums adjusted at OD600 = 0.01 [~10^6 colony forming units (CFU) per mL] in BHI broth supplemented with 4% fetal bovine serum (BHI + FBS) were prepared and immediately exposed to final concentrations between 64 and 0.031 mg/L of each compound of interest. The compound solvent (DMSO) as well as conventional antibiotics (MTZ, CLR, LVX) were included as controls. […] Each experiment was performed twice in triplicate. The MIC and MBC values of the selected compounds against C. jejuni ATCC 33560 were determined by using the same method and culture conditions described for the H. pylori strains.
# [3] = tested on: H. pylori ATCC 700684 (CLR-R); assay: MIC/MBC, broth microdilution; assay type: cell-based, Helicobacter pylori
# Method: as §1
# [4] = tested on: H. pylori Donostia 2 (LVX-R); assay: MIC/MBC, broth microdilution; assay type: cell-based, Helicobacter pylori; conditions: H. pylori Donostia 2 (LVX-R)
# Method: as §1
# [5] = tested on: H. pylori ATCC 43504 (MTZ-R); assay: MIC/MBC, broth microdilution; assay type: cell-based, Helicobacter pylori; conditions: H. pylori ATCC 43504 (MTZ-R)
# Method: as §1
# [6] = tested on: S. epidermidis ATCC 12228; assay: MIC/MBC according to EUCAST guidelines; assay type: cell-based; conditions: Staphylococcus epidermidis, ATCC12228
# Method: (§2) The antimicrobial activities of the selected compounds against several Gram-negative and Gran-positive representative species of normal human microbiota were determined according to the EUCAST guidelines. Briefly, standardized inoculums (0.5 McFarland) were freshly prepared from overnight Mueller–Hinton agar plates of reference strains E. coli ATCC 25922, K. pneumonia ATCC 700603, E. faecalis ATCC 29212, S. aureus ATCC 29213, S. epidermidis ATCC 12228, and S. agalactiae ATCC 12386. Next, bacterial suspensions adjusted to 5 × 10^5 CFU/mL in Mueller–Hinton broth were exposed to a range of concentrations from 64 to 0.031 mg/L of the selected compounds. DMSO and conventional antibiotics LVX and AMP were included as controls. […] Experiments were performed twice in triplicate.
# [7] = tested on: E. coli ATCC 25922; assay: MIC/MBC according to EUCAST guidelines; assay type: cell-based; conditions: Escherichia coli, ATCC25922
# Method: as §2
# [8] = tested on: S. aureus ATCC 29213; assay: MIC/MBC according to EUCAST guidelines; assay type: cell-based; conditions: Staphylococcus aureus, ATCC29213
# Method: as §2
# [9] = tested on: S. agalactiae ATCC 12386; assay: MIC/MBC according to EUCAST guidelines; assay type: cell-based; conditions: Streptococcus agalactiae, ATCC12386
# Method: as §2
# [10] = tested on: E. faecalis ATCC 29212; assay: MIC/MBC according to EUCAST guidelines; assay type: cell-based; conditions: Enterococcus faecalis, ATCC29212
# Method: as §2
# [11] = tested on: C. jejuni ATCC 33560; assay: MIC/MBC, broth microdilution; assay type: cell-based; conditions: Campylobacter jejuni, ATCC33560, C. jejuni ATCC 33560
# Method: as §1
# [12] = tested on: K. pneumoniae ATCC 700603; assay: MIC/MBC according to EUCAST guidelines; assay type: cell-based, Klebsiella pneumonia; conditions: Klebsiella pneumoniae, ATCC700603
# Method: as §2
# [13] = tested on: T1, HsrA (Helicobacter pylori 26695), ORF:12bb3c8f; assay: EMSA; conditions: EMSA: 10 mM bis-Tris pH 7.5, 40 mM KCl, 100 mg/L BSA, 1 mM DTT, 5% glycerol; room temperature 20 min; 6% native gel, SYBR Safe
# T1 sequence: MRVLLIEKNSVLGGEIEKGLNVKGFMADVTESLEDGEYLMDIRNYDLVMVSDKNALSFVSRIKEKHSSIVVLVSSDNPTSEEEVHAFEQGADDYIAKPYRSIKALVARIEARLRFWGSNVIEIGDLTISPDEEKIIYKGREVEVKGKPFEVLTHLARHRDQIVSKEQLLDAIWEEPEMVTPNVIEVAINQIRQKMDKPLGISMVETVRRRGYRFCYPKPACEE
# [14] = Helicobacter pylori, ATCC700392, read-out: MBC
# [15] = Helicobacter pylori, ATCC700392, read-out: MIC
# [16] = Helicobacter pylori, ATCC700684, read-out: MBC
# [17] = Helicobacter pylori, ATCC700684, read-out: MIC
# [18] = Helicobacter pylori, read-out: MBC
# [19] = Helicobacter pylori, read-out: MIC
# [20] = Helicobacter pylori, ATCC43504, read-out: MBC
# [21] = Helicobacter pylori, ATCC43504, read-out: MIC
compound,measurement,setting,value
COc1ccc([C@@H]2CC(=O)c3c(O)cc(O)cc3O2)cc1O [hesperetin],Combinatory action with clarithromycin or metronidazole against H. pylori,[1],strong synergistic bactericidal action
"CC[C@H]1OC(=O)[C@H](C)[C@@H](O[C@H]2C[C@@](C)(OC)[C@@H](O)[C@H](C)O2)[C@H](C)[C@@H](O[C@@H]2O[C@H](C)C[C@H](N(C)C)[C@H]2O)[C@](C)(OC)C[C@@H](C)C(=O)[C@H](C)[C@@H](O)[C@]1(C)O [CLR, clarithromycin, reference compound]",MBC,[2]; [14],< 0.03 µg/mL
same,MIC,[2]; [15],< 0.03 µg/mL
same,MBC,[3]; [16],32 µg/mL
same,MIC,[3]; [17],16 µg/mL
same,MBC,[4]; [18],< 0.03 µg/mL
same,MIC,[4]; [19],< 0.03 µg/mL
same,MBC,[5]; [20],< 0.03 µg/mL
same,MIC,[5]; [21],< 0.03 µg/mL
"Cc1ncc([N+](=O)[O-])n1CCO [MTZ, metronidazole, reference compound]",MBC,[2]; [14],2 µg/mL
same,MIC,[2]; [15],1 µg/mL
same,MBC,[3]; [16],2 µg/mL
same,MIC,[3]; [17],1 µg/mL
same,MBC,[4]; [18],8 µg/mL
same,MIC,[4]; [19],8 µg/mL
same,MBC,[5]; [20],128 µg/mL
same,MIC,[5]; [21],64 µg/mL
O=c1cc(-c2ccccc2)oc2cc(O)cc(O)c12 [chrysin],Combinatory action with clarithromycin or metronidazole against H. pylori,[1],strong synergistic bactericidal action
Cc1oc2ccccc2c1CC(=O)NNC(=S)Nc1cccc(C(F)(F)F)c1 [Ligand X],MBC,[2],16 µg/mL
same,MIC,[2],8 µg/mL
same,MBC,[3],8 µg/mL
same,MIC,[3],8 µg/mL
same,MBC,[4],16 µg/mL
same,MIC,[4],8 µg/mL
same,MBC,[5],8 µg/mL
same,MIC,[5],8 µg/mL
NC(Cn1ccc(C(F)(F)F)n1)=NOC(=O)Nc1ccc(SC(F)(F)F)cc1 [Ligand IX],MBC,[2],16 µg/mL
same,MIC,[2],8 µg/mL
same,MBC,[3],8 µg/mL
same,MIC,[3],4 µg/mL
same,MBC,[4],16 µg/mL
same,MIC,[4],8 µg/mL
same,MBC,[5],8 µg/mL
same,MIC,[5],4 µg/mL
CC(=O)Nc1cc(C(=O)c2cccs2)nn(-c2ccc(Cl)cc2)c1=O [Ligand XXXI],MBC,[2],> 64 µg/mL
same,MIC,[2],> 64 µg/mL
same,MBC,[3],> 64 µg/mL
same,MIC,[3],> 64 µg/mL
same,MBC,[4],> 64 µg/mL
same,MIC,[4],> 64 µg/mL
same,MBC,[5],64 µg/mL
same,MIC,[5],64 µg/mL
"CC1(C)S[C@@H]2[C@H](NC(=O)[C@H](N)c3ccccc3)C(=O)N2[C@H]1C(=O)O [AMP, ampicillin, reference compound]",MBC,[6],4 µg/mL
same,MIC,[6],4 µg/mL
same,MBC,[7],4 µg/mL
same,MIC,[7],4 µg/mL
same,MBC,[8],4 µg/mL
same,MIC,[8],2 µg/mL
same,MBC,[9],0.5 µg/mL
same,MIC,[9],0.25 µg/mL
same,MBC,[10],4 µg/mL
same,MIC,[10],4 µg/mL
"C[C@H]1COc2c(N3CCN(C)CC3)c(F)cc3c(=O)c(C(=O)O)cn1c23 [LVX, levofloxacin, reference compound]",MBC,[11],< 0.12 µg/mL
same,MIC,[11],< 0.12 µg/mL
same,MBC,[12],0.5 µg/mL
same,MIC,[12],0.5 µg/mL
same,MBC,[2]; [14],0.12 µg/mL
same,MIC,[2]; [15],0.12 µg/mL
same,MBC,[3]; [16],0.12 µg/mL
same,MIC,[3]; [17],0.12 µg/mL
same,MBC,[4]; [18],32 µg/mL
same,MIC,[4]; [19],16 µg/mL
same,MBC,[5]; [20],0.5 µg/mL
same,MIC,[5]; [21],0.5 µg/mL
CCOC(=O)c1ccc(-n2nnc(C=CC=CN3CCOCC3)n2)cc1 [Ligand XVII],MBC,[2],16 µg/mL
same,MIC,[2],16 µg/mL
same,MBC,[3],8 µg/mL
same,MIC,[3],8 µg/mL
same,MBC,[4],8 µg/mL
same,MIC,[4],8 µg/mL
same,MBC,[5],8 µg/mL
same,MIC,[5],4 µg/mL
Cc1sc2c(c1C)C(O)=C(C(=O)Nc1ccc(OC(F)(F)F)cc1)S(=O)(=O)N2C [Ligand XXVIII],MBC,[2],64 µg/mL
same,MIC,[2],32 µg/mL
same,MBC,[3],32 µg/mL
same,MIC,[3],32 µg/mL
same,MBC,[4],32 µg/mL
same,MIC,[4],32 µg/mL
same,MBC,[5],16 µg/mL
same,MIC,[5],16 µg/mL
CCCCACACTTGCCCCATACAGACTAAAATCAAATCACACCTTAAATAATAACAAAGTTTAAAATAAATATTAGTGGTTTTTATTAAGAACGCTTGTCTTTTTAGAATAAATGGCCATAAAATAGCCATAATTCTTGTAGGTATGCCCCCATTTTCCTATAAAAATTCCTAAAAAGATATTGTTATAAGACACATTAATAGTTTTTCTTGTATAATTCTAGGCTGAATTCAATTTATTTTATACGATATTAAGGAGACATATTACCATGTTTCAAATTAGATGGCATGC (double strand) [PporG (porGDAB promoter)],binding,[13],binds
